# Assay results: ChEMBL document CHEMBL4219188, “Design, synthesis, neuroprotective, antibacterial activities and docking studies of novel thieno[2,3-d]pyrimidine-alkyne Mannich base and oxadiazole hybrids” (Bioorg Med Chem Lett, 2018)
# Tests used:
# Escherichia coli [1] = test: Antibacterial activity against Escherichia coli after 24 hrs by UV-vis spectrophotometric method; format: functional
# Pseudomonas aeruginosa [2] = test: Antibacterial activity against Pseudomonas aeruginosa after 24 hrs by UV-vis spectrophotometric method; format: functional
# PC-12 [3] = test: Neuroprotective activity against H2O2-induced cytotoxicity in rat PC12 cells assessed as increase in cell viability pretreated for 24 hrs followed by H2O2 addition by MTT assay; format: functional, cell-based
# [4] = Cytotoxicity against rat PC12 cells assessed as cell viability at CC50 after 24 hrs by MTT assay relative to control; format: cell-based, PC-12; conditions: read-out: Activity
# Staphylococcus aureus [5] = test: Antibacterial activity against Staphylococcus aureus after 24 hrs by UV-vis spectrophotometric method; format: functional
# Escherichia coli [6] = test: Antibacterial activity against Escherichia coli assessed as diameter of inhibition zone measured after 24 hrs by agar well diffusion method; format: functional; also: test concentration or dose not given here
# [7] = Cytotoxicity against rat PC12 cells assessed as cell viability at MNTC after 24 hrs by MTT assay relative to control; format: cell-based, PC-12; conditions: read-out: Activity
# Bacillus subtilis [8] = test: Antibacterial activity against Bacillus subtilis assessed as diameter of inhibition zone measured after 24 hrs by agar well diffusion method; format: functional; also: test concentration or dose not given here
# Pseudomonas aeruginosa [9] = test: Antibacterial activity against Pseudomonas aeruginosa assessed as diameter of inhibition zone measured after 24 hrs by agar well diffusion method; format: functional; also: test concentration or dose not given here
# Staphylococcus aureus [10] = test: Antibacterial activity against Staphylococcus aureus assessed as diameter of inhibition zone measured after 24 hrs by agar well diffusion method; format: functional; also: test concentration or dose not given here
# [11] = Cytotoxicity against rat PC12 cells after 24 hrs by MTT assay; format: cell-based, PC-12; conditions: for MNTC at 24 h: read-out: MNCC
# PC-12 [12] = test: Neuroprotective activity against H2O2-induced cytotoxicity in rat PC12 cells assessed as cell viability at EC50 pretreated for 24 hrs followed by H2O2 addition by MTT assay relative to control; format: functional
# Bacillus subtilis [13] = test: Antibacterial activity against Bacillus subtilis after 24 hrs by UV-vis spectrophotometric method; format: functional
MIC (Escherichia coli [1]),MIC (Pseudomonas aeruginosa [2]),MIC (Staphylococcus aureus [5]),MIC (Bacillus subtilis [13]),Structure (SMILES),Activity (PC-12 [3]),EC50 (PC-12 [3]),viability at 24 h [4],diameter of the inhibition zone (DIZ) (Escherichia coli [6]),viability at 24 h [7],diameter of the inhibition zone (DIZ) (Bacillus subtilis [8]),diameter of the inhibition zone (DIZ) (Pseudomonas aeruginosa [9]),diameter of the inhibition zone (DIZ) (Staphylococcus aureus [10]),CC50 at 24 h [11],MNTC at 24 h [11],Activity (PC-12 [12])
0.622 µg/mL,0.0614 µg/mL,0.313 µg/mL,0.0158 µg/mL,COc1ccc(N2CCN(CC#CCOC(=O)c3sc4ncnc(N5CCCCC5)c4c3C)CC2)cc1,Dose-dependent effect,35.3 µg/mL,49.4%,11 mm,99.4%,11 mm,10 mm,13 mm,140 µg/mL,80 µg/mL,76.16%
0.0138 µg/mL,0.0201 µg/mL,0.0404 µg/mL,0.0142 µg/mL,Cc1ccc(-c2nnc(-c3sc4ncnc(N5CCCCC5)c4c3C)o2)cc1,Dose-dependent effect,28.2 µg/mL,49.2%,11 mm,99.5%,17 mm,12 mm,14 mm,161 µg/mL,110 µg/mL,74.98%
0.0384 µg/mL,0.0842 µg/mL,0.0244 µg/mL,0.521 µg/mL,COc1cccc(N2CCN(CC#CCOC(=O)c3sc4ncnc(N5CCCCC5)c4c3C)CC2)c1,Dose-dependent effect,40.4 µg/mL,51%,13 mm,98.2%,13 mm,14 mm,10 mm,144 µg/mL,96 µg/mL,75.08%
0.0132 µg/mL,0.0442 µg/mL,0.0546 µg/mL,0.0464 µg/mL,Cc1ccc(-c2nnc(-c3sc4ncnc(N5CCOCC5)c4c3C)o2)cc1,Dose-dependent effect,26.6 µg/mL,49.2%,18 mm,97.6%,15 mm,14 mm,18 mm,86.1 µg/mL,68 µg/mL,74.2%
